{
  "source": "patent US8455639B2",
  "about": "“Crystalline form of an organic compound” (Sandoz AG, priority 2008, dated 2013)",
  "key": {"[1]": {"experiment": "Hygroscopicity: water uptake on stepwise increase/decrease of relative humidity", "format": "physicochemical", "conditions": "for water uptake: value at end of the one hour storage period", "protocol": "In these experiments humidity was increased/decreased stepwise. Starting at 0% relative humidity every one hour the humidity level was increased by 10% relative humidity. The gain/loss of weight was recorded continuously. The values given represent the value at the end of the one hour storage period at the indicated relative humidity level.\nThis water is easily lost, e.g. by storage at a relative humidity of 60% or less."}, "[2]": {"experiment": "Storage stability at ambient temperature, measured by HPLC (stability and purity test)", "format": "physicochemical", "conditions": "samples stored for 4 months at ambient temperature", "protocol": "Stability and Purity Test:\nApparatus: Agilent 11 Series • Column: YMC-Pro C18; 150×4,6 mm, S-5 μm, 120A • Eluent: mobile phase A: 3.884 g of amidosulfonic acid in 1000 g of water; mobile phase B: 3.884 g of amidosulfonic acid in 250 g of water and 588 g of acetonitrile.\nMeasurement at a wavelength of 220 nm; injection volume 7 μl, oven temperature 40° C., Flow 1.0 ml/min\nSample preparation: approximately 10 mg of a sample of the crystalline form of alogliptin free base are dissolved in 10 ml of acetonitrile and the solution is filled up to 25 ml with water\nRun time 20 min • Gradient: […]"}},
  "data": [
    {"smiles": "Cn1c(=O)cc(N2CCC[C@@H](N)C2)n(Cc2ccccc2C#N)c1=O", "note": "[2-[6-[3(R)-aminopiperidin-1-yl]-3-methyl-2,4-dioxo-1,2,3,4-tetrahydropyrimidin-1-ylmethyl]-benzonitrile]", "values": [
      {"measurement": "change in crystal structure / formation of a hydrated form", "setting": "[1]; exposed to extremely high relative humidity", "result": "No change in crystal structure nor the formation of a hydrated form"},
      {"measurement": "hygroscopicity", "setting": "[1]; in words", "result": "low hygroscopicity"},
      {"measurement": "water uptake", "setting": "[1]; stored at about 25° C. for 60 min at a relative humidity of 50%", "result": "about 0.4 % w/w"},
      {"measurement": "water uptake", "setting": "[1]; stored at about 90% relative humidity at about 25° C. for 60 min", "result": "about 1.6 % w/w"},
      {"measurement": "degradation (chemical stability)", "setting": "[2]", "result": "no degradation"}
    ]}
  ]
}
